From patent publication US8058242B2, “Chimeric proteins with natriuretic activity” (The University of Queensland, priority 2004, dated 2011)
Positions of bridges follow the written chain, without caps; N, C: chain ends. Non-standard residues stand in square brackets, D forms with d. No end group written: not given here. Sec = N[C@@H](C[SeH])C(=O)O; Nle = CCCC[C@H](N)C(=O)O

Assays:
[1] = tested on: denuded aortic rings, GC A receptor; experiment: Relaxation of noradrenaline constricted endothelium-denuded aortic rings (Example 11); design: species or system rat; conditions: GC-A mediated
Method: Male Sprague Dawley rats were killed and the descending thoracic aorta rapidly removed and flushed with physiological solution. After being cleared of adhering fat and connective tissue, 5 mm rings were mounted under 10 g resting tension, between two stainless steel hooks, in organ baths (37° C.) containing carbogenated (95% O2 and 5% CO2) physiological salt solution of the following composition (mM): NaCl, 118.4; NaHCO3, 25; glucose, 11; KCl, 4.7; MgSO4, 1.2; KH2PO4, 1.2 and CaCl2, 2.5. The lower hook was attached to a tissue holder and the upper hook to a force displacement transducer (Grass FTO3). Where indicated endothelial cells were removed by gentle rubbing of the intimal surface with a wire. To confirm the presence or absence of endothelial cells, tissues were precontracted with a sub-maximal concentration of phenylephrine (0.3 μM) and the response to acetylcholine (ACh, 10 μM) observed. Ach-induced relaxation greater than 80% of maximum indicated the presence of endothelium; whereas Ach-induced relaxation less than 10% indicated the absence of endothelium. Ring preparations under resting tension were conditioned by two contraction/relaxation cycles with 40 mM KCl, contracted by a third application of 40 mM KCl and then relaxed with different doses of the venom peptides. Responses were expressed as a percentage relaxation of the precontraction by KCl.
In addition to the peptides tested in example 3, a series of 13 analogs corresponding to the 2a, 2b and 2c grouping of peptides were examined for their ability to dilate noradrenaline constricted aortic rings. The degree of constriction was expressed as a percentage of the KCl induced constriction. The aortic rings were prepared in a manner similar to the method described in example 3. […]. In each case there were at least 3 separate aortic rings tested per peptide and all were denuded of endothelium to ensure responses were confined to the GC A receptor.

[2] = tested on: conscious rabbits; experiment: Blood pressure and heart rate in conscious rabbits, intravenous infusion dose-response (Example 8); conditions: for recovery of MAP, in words: 2 hours after infusion
[3] = after a 2 hour recovery period, Table 10B
[4] = final dose, Table 10B, groups 2B and 2C
[5] = after 1 hour recovery period, Table 10A

Substance | Mean relaxation SEM of denuded aortic rings expressed as % of KCl response [1] [%] | recovery of MAP, in words [2] | MAP at final dose ([2]; Table 10B) [mm Hg] | Recovery (MAP) [2, 3] [mm Hg] | Recovery Delta SED (MAP) [2, 3] [mm Hg] | Treatment Effect, change of mean blood pressure during the infusion [2, 4] [mm Hg] | Recovery (MAP) [2, 5] [mm Hg] | Recovery Delta SED (MAP) [2, 5] [mm Hg] | reduction of MAP compared to vehicle, in words ([2]; highest dose) | MAP at final dose ([2]; highest dose, Table 10A) [mm Hg] | Treatment Effect, change of mean blood pressure during the infusion ([2]; highest dose, Table 10A, groups 1, 2A and 3) [mm Hg] | recovery of MAP from the hypotension, in words ([2]; one hour after the end of infusion)
SDSKIGNGCFGFPLDRIGSVSGLGCNRInQNPPKKFSGE (SDSKIGNGCFGFPLDRIGSVSGLGCNRI[Nle]QNPPKKFSGE; disulfide 9-25 (inferred); ends not checked) [TNPc Nle] | 61.0 ± 2.5 | partially recovered | 53.4 | 64.5 | 11.0 ± 3.0 | −13.6 | – | – | – | – | – | –
SDSKIGNGCFGFPLDRIGSVSGLGCNRPMQNPPKKFSGE (A portion of a natriuretic peptide) [TNPc I28P] | 52.6 ± 5.0 | – | – | – | – | – | 66.6 | 1.2 ± 2.4 | did significantly reduce MAP | 65.4 | −9.1 | did recover from the hypotension
SDSKIGNGUFGFPLDRIGSVSGLGUNRIMQNPPKKFSGE (SDSKIGNG[Sec]FGFPLDRIGSVSGLG[Sec]NRIMQNPPKKFSGE; ends and bridges not checked) [TNPc diseleno] | 60.5 ± 9.6 | did not recover after 2 hours | 61.0 | 65.8 | 4.8 ± 0.3 | −12.6 | – | – | – | – | – | –
